Test results from PubChem BioAssay AID687022 (Broad Institute, 2013).
Active and inactive are the calls of the source.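 The calls were made as follows: active = Fitted curve of melting temperature shift crosses the 1.0 threshold at or below the sample's highest valid tested concentration; inconclusive = Flat fit with activity 30 to 70, or invalid fit; inactive = Opposite direction, flat within 30, or no crossing.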

These compounds were tested against Fibroblast growth factor 22 (Homo sapiens) (UniProt Q9HCT0) (assay: FGF22 ligand-induced thermal stabilization – biophysical, thermal shift, cherry-pick, FGF22 synaptogenesis inhibitor project, dose response (AID 687022)). Conditions: recombinant FGF22 thermal shift, SYPRO orange melting.
Chain of Fibroblast growth factor 22 (Homo sapiens) (Q9HCT0 whole entry, looked up): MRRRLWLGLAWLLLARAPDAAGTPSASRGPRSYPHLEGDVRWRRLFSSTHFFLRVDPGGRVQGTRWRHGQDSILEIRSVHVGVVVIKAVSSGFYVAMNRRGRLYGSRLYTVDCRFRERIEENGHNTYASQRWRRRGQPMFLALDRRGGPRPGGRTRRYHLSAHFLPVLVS

Structure (SMILES)	AbsAC1 (concentration giving Tm-shift threshold 1.0)
Oc1ccc(-c2nnc(Nc3cccc(O)c3)c3ccccc23)cc1	5.28 µM
COc1ccc2c(/C=N/NS(=O)(=O)c3ccc(C)cc3)c[nH]c2c1	9.87 µM
COc1cccc(NC(=O)CN(C)C(=O)c2cn(-c3ccccc3)nc2-c2cccs2)c1	6.16 µM
C[C@@H]1CN([C@@H](C)CO)C(=O)c2cc(NC(=O)Nc3ccc(C(F)(F)F)cc3)ccc2O[C@@H]1CN(C)Cc1ccc(C(=O)O)cc1	18.1 µM
C[C@H]1CN([C@@H](C)CO)S(=O)(=O)c2ccc(-c3ccncc3)cc2O[C@H]1CN(C)C(=O)Nc1ccc(C(F)(F)F)cc1	11.8 µM
Nc1ccccc1N=Nc1ccccc1N	7.75 µM
CCOC(=O)c1sc(NC(=O)Nc2ccccc2)cc1C	10.2 µM
O=S(=O)(Nc1nnc(C(F)(F)F)s1)c1ccc(Cl)cc1	3.42 µM
O=C(C[C@@H]1CC[C@@H]2[C@H](COC[C@@H](O)CN2S(=O)(=O)c2cccc(F)c2)O1)Nc1ccc(-c2ccccc2)cc1	22.3 µM
Cc1ccc(NC(=O)Nc2cccnc2)cc1	27.1 µM
O=C(NCC1CC1)c1onc(CSc2ccc(F)cc2)c1C(=O)NCC1CC1	2.58 µM
CCOc1ccc(N2C(=O)C(CC(=O)Nc3ccc(F)cc3)N(Cc3ccccn3)C2=S)cc1 (centres undefined)	9.4 µM
Cc1noc(NC(=O)c2cccc(Cl)c2Cl)c1C#N	32.7 µM
O=C(CCc1ccccc1)c1c(O)cc(O)cc1O	> 5 µM (inactive)
COc1ccc(CN2C(=O)N(c3ccc(OC)cc3)C(=O)C2CC(=O)Nc2ccccc2)cc1 (centres undefined)	6.06 µM
O=C(Nc1ccc(F)cc1)N[C@H]1CC[C@@H](CCn2cc(-c3ccccc3F)nn2)O[C@@H]1CO	7.38 µM
S=C(Nc1ccc(Cl)cc1)Nc1ccc2cn[nH]c2c1	3.25 µM
O=C(N/N=C\c1cccnc1)c1cc(-c2ccc(Cl)s2)[nH]n1	> 38 µM (inactive)
O=C(O)Cn1cc(/C=N/NC(=O)c2cc3cc(Br)ccc3o2)c2ccccc21	6.74 µM
O=C(Nc1nccs1)C1CC(=O)N(c2ccc(F)cc2)C1 (centres undefined)	8.93 µM
CS(=O)(=O)c1ccc2nc(NC(=O)c3ccc(Cl)nc3)sc2c1	22.9 µM

Structure (SMILES)	AbsAC1 (concentration giving Tm-shift threshold 1.0)
O=C(O)c1cccc(NS(=O)(=O)c2ccc(-c3ccc(S(=O)(=O)Nc4cccc(C(=O)O)c4)cc3)cc2)c1	1.2 µM
O=C(O)c1ccccc1NS(=O)(=O)c1ccc2ccccc2c1	4.33 µM
O=C(CCc1c[nH]c2ccccc12)Nc1ccc(Oc2cccnc2)cc1	7.99 µM
O=C(NN1C(=O)CSC1=S)C(=O)NN1C(=O)CSC1=S	5.24 µM
COc1ccc(NC(=O)CN(C)C(=O)c2cn(-c3ccccc3)nc2-c2cccnc2)cc1	> 38 µM (inactive)
O=C(N/N=C/c1c[nH]c2ccccc12)c1cccs1	2.71 µM
CO[C@@H](CN(C)S(=O)(=O)c1ccc(Cl)cc1)[C@@H](C)CN([C@H](C)CO)S(=O)(=O)c1cccc(Cl)c1	10.7 µM
NS(=O)(=O)c1cc(C(=O)NC2CCSc3ccccc32)ccc1Cl (centres undefined)	9.54 µM
CCn1c2ccccc2c2cc(/C=N/NC(=O)c3ccncc3)ccc21	25 µM
CC(=O)C1=C(O)C(=O)N(c2ccc(S(=O)(=O)Nc3nccs3)cc2)C1c1ccc(F)cc1 (centres undefined)	> 19.5 µM (inactive)
O=C(N/N=C/c1ccc([N+](=O)[O-])cc1)c1c[nH]c2ccccc12	20 µM
C[C@H]1CN([C@@H](C)CO)S(=O)(=O)c2ccc(C3=CCCC3)cc2O[C@H]1CN(C)C(=O)Nc1ccc2c(c1)OCO2	22.9 µM
O=C(CNS(=O)(=O)c1ccccc1)OCC(=O)c1c[nH]c2ccccc12	9.88 µM
C/C(=N\NC(=O)c1ccc(NS(=O)(=O)c2cccs2)cc1)c1cccs1	3.06 µM
Cc1ccc(-c2n[nH]c(=S)n2/N=C/c2c(C)[nH]n(-c3ccccc3)c2=O)cc1	4.65 µM
O=C(N/N=C/c1ccc(C(F)(F)F)cc1)c1ccc(O)cc1	2.48 µM
CCOC(=O)C(c1c(O)c2ccccc2oc1=O)c1c(O)c2ccccc2oc1=O	> 5 µM (inactive)
C[C@@H]1CN([C@H](C)CO)C(=O)c2cc(NC(=O)Nc3ccc(C(F)(F)F)cc3)ccc2O[C@@H]1CN(C)Cc1ccc(C(=O)O)cc1	11.5 µM
CCC(=O)Nc1nc(C)c(-c2csc(Nc3ccccn3)n2)s1	4.91 µM
CC(=O)c1c(C)nc(-c2ccc(OCC(=O)Nc3ccc(F)cc3)cc2)n1O	16.3 µM
O=C(NCC[C@@H]1CC[C@H](NC(=O)c2cnccn2)[C@H](CO)O1)Nc1ccc(F)cc1	41 µM

Structure (SMILES)	AbsAC1 (concentration giving Tm-shift threshold 1.0)
O=C(CCc1c[nH]c2ccccc12)Nc1ccc(Nc2cccnc2)cc1	4.36 µM
CC(=O)Nc1ccc(NC(=O)Nc2ccccc2)cc1	2.14 µM
C/C=C/c1ccc2c(c1)O[C@@H](CN(C)C(=O)Nc1cc(F)ccc1F)[C@@H](C)CN([C@H](C)CO)S2(=O)=O	20.6 µM
CN1C(=O)c2cc(NC(=O)c3cccc(F)c3)ccc2OC[C@@H]2O[C@H](CC(=O)NCc3ccccc3)CC[C@@H]21	21 µM
CCN1C(=O)C(CC(=O)Nc2ccc(F)cc2)N(Cc2ccc3c(c2)OCO3)C1=S (centres undefined)	2.83 µM
N#Cc1ccc(NC(=O)Nc2cccc(C#N)c2)cc1	4.49 µM
CC(C)n1c(=O)c2ccccc2n1Cc1cn(-c2ccc(Cl)cc2)nn1	3.24 µM
O=C(O)/C=C/c1cccc(NC(=O)Nc2ccc([N+](=O)[O-])cc2)c1	4.49 µM
COc1ccc([N+](=O)[O-])cc1/C=N/Nc1nn[nH]n1	6.12 µM
COc1ccc(/C(=N\Nc2ccccc2C(=O)O)c2ccccc2)cc1	> 19.5 µM (inactive)
CN1C(=O)c2cc(NC(=O)c3cccc(F)c3)ccc2OC[C@H]2O[C@@H](CC(=O)NCC3CCCCC3)CC[C@H]21	22.3 µM
COC(=O)C[C@H]1CC[C@@H]2[C@@H](COc3ccc(NC(=O)Nc4cccc(C#N)c4)cc3C(=O)N2C)O1	7.79 µM
Cc1cccc(OC(C)C(=O)Nc2ccc3c(c2)OCCO3)c1 (centres undefined)	15.1 µM
Cc1ccn(-c2ccc(NC(=O)c3cccs3)cc2)n1	3.72 µM
O=C(NCCc1c[nH]c2ccccc12)c1ccc(Cl)cc1	2.49 µM
Cc1ccccc1S(=O)(=O)NCC[C@@H]1CC[C@@H](NC(=O)Nc2cccc(Cl)c2)[C@@H](CO)O1	8.07 µM
COc1ccc(N2C(=O)C(CC(=O)Nc3ccccc3)N(Cc3ccccn3)C2=S)cc1 (centres undefined)	9.43 µM
COc1cc(NC(=O)c2cnc(N)s2)cc(C(=O)Nc2cccc(C(F)(F)F)c2)c1	2.42 µM
Nc1nonc1N/N=C\c1ccccc1	4.88 µM
COC(=O)c1cc(OC)c(OC)cc1NC(=O)c1ccccc1C	16.7 µM
COc1c(O)ccc(/C=C(\C#N)c2nc3ccccc3[nH]2)c1[N+](=O)[O-]	7.61 µM

Structure (SMILES)	AbsAC1 (concentration giving Tm-shift threshold 1.0)
O=C(CN1C(=O)NC(Cc2c[nH]c3ccccc23)C1=O)Nc1ccc(Br)cc1F (centres undefined)	4.93 µM
Nc1cccc(-c2nc3ccc(C(=O)c4ccccc4)cc3[nH]2)c1	1.15 µM
CN1C(=O)c2cc(NC(=O)c3cccc(F)c3)ccc2OC[C@H]2O[C@@H](CC(=O)NCc3ccccc3)CC[C@H]21	3.24 µM
Cc1cccc(NC(=O)c2ccc(-c3ccccc3[N+](=O)[O-])o2)c1	> 38 µM (inactive)
COc1ccc(/C=N/NC(=O)c2cc(-c3ccc4c(c3)OCO4)n[nH]2)cc1OC	18.1 µM
O=C(CC(=O)c1ccccc1)Nc1cccc([N+](=O)[O-])c1	4.49 µM
C/C=C/c1ccc2c(c1)O[C@H](CN(C)C(=O)Nc1cc(F)ccc1F)[C@H](C)CN([C@H](C)CO)S2(=O)=O	> 42 µM (inactive)
COc1ccc(N(C)S(=O)(=O)c2cccc(C(=O)Nc3ccc(N4CCOCC4)cc3)c2)cc1	9 µM
COc1cc(NS(=O)(=O)c2ccc(NS(=O)(=O)c3ccc(C)cc3)cc2)nc(OC)n1	3.69 µM
COc1cccc(NC(=O)CN(C)C(=O)c2ccc(NC3CC3)c([N+](=O)[O-])c2)c1	5.08 µM
COc1ccccc1NC(=O)N[C@@H]1CC[C@@H](CCn2cc(-c3ccccc3OC)nn2)O[C@@H]1CO	4.76 µM
Oc1ccc(/C=N/N=C/c2ccc(O)c(O)c2)cc1O	2.05 µM
O=C(Nc1ccc(F)c(Cl)c1)C1CCCN(C2=NS(=O)(=O)c3ccccc32)C1 (centres undefined)	> 38 µM (inactive)
O=C(N/N=C/c1c[nH]c2ccccc12)c1cccc(O)c1	2.9 µM
CCOc1cccc(C(=O)Nc2ccc3[nH]ncc3c2)c1	3.89 µM
O=C(O)Cc1ccc(NC(=O)c2ccc(Cl)c(Cl)c2)cc1	4.5 µM
O=C(CC1SC(=O)NC1=O)Nc1ccc(Cl)cc1 (centres undefined)	3.11 µM
O=C(N/N=C/c1c[nH]c2ccccc12)c1cc2ccccc2o1	2.71 µM
COc1ccc(-c2nc3ccc([N+](=O)[O-])cc3[nH]2)cc1	1.99 µM
O=C(Nc1nc(-c2ccccn2)cs1)c1cc2ccccc2o1	16.1 µM
O=C(N/N=C/c1c[nH]c2ccccc12)c1ccc(O)c(O)c1	3.74 µM
